In BindingDB's records for doi:10.1016/j.bmcl.2019.126806 (Temple University, 2020):

Each compound was assayed against T1, Lysosomal acid glucosylceramidase (Homo sapiens, UniProt P04062) (assay: Chaperone activity at GCase in wild-type human fibroblasts assessed as increase in GPN-induced reduction of calcium release using Fluo-8AM based fluorescence assay).
T1 sequence (P04062 whole entry): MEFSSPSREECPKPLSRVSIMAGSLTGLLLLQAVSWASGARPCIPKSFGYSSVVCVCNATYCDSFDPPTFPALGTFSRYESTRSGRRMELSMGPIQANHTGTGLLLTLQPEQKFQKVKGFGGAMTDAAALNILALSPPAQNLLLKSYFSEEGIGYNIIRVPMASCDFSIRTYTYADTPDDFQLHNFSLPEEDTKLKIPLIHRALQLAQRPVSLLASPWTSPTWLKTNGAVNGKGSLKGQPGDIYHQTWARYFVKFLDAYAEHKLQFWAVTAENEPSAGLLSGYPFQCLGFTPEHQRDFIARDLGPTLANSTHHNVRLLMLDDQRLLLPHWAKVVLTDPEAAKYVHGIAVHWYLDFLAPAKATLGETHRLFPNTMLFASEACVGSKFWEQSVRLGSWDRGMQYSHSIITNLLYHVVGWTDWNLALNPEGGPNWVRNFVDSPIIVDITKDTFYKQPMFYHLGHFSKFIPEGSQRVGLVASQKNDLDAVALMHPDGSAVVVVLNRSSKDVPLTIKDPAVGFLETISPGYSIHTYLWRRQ

| EC50 [nM] | Compound |
| --- | --- |
| 1100 | C/C=C/c1ccccc1C(CCCC)C(=O)c1ccc(OCCN(C)C)cc1 (centres undefined) |
| 700 | CCCCC(C(=O)c1ccc(OCCN(C)C)cc1)c1ccccc1C(C)C (centres undefined) |
| 1100 | CC(C)CC(C(=O)c1ccc(OCCN(C)C)cc1)c1ccccc1C(C)C (centres undefined) |
| 1100 | CC(C)CC(C(=O)c1ccc(OCCN(C)C)cc1)c1ccccc1C1CC1 (centres undefined) |
